Assays:
[1] = system: CRISPR/Cas9-edited primary human T cells; experiment: T cell activation after CRISPR/Cas9 target disruption plus compound (FACS CD25/CD69); type: cell-based
Procedure: DNA templates consisting of a T7 RNA Polymerase promoter, the ˜20 nt target-specific sequence, and the chimeric sgRNA scaffold were generated for each desired target by overlapping PCR using Q5 High Fidelity Master Mix (New England Biolabs) under the following conditions: 98° C. for 2 min; 50° C. for 10 min; 72° C. for 10 min. Guide RNA templates were used to transcribe guide RNAs using the HiScribe T7 High Yield RNA Synthesis kit (New England Biolabs) according to the manufacturer's instructions. Following in vitro transcription, guides were purified using Monarch RNA Cleanup Kit (New England Biolabs) following manufacturer's instructions.
The Cas9 RNPs were assembled before transfection using the ArciTect™ Cas9-eGFP Nuclease (StemCell) with the T7 transcribed RNAs at a molar ratio of 1:3 in Buffer T. For each target of interest, the genome was tiled with 3 unique guide RNAs. Before the transfection, primary T cells were preactivated on αCD3/αCD28-precoated plates in complete RPMI medium supplemented with 100 U/mL IL2 for 48 h. The T cells were then washed with PBS and resuspended in Buffer T (10×10^6 cells/mL) and the Cas9 RNP transfections were performed using the Neon Transfection system (ThermoFisher). Following the Cas9 RNP transfection, T cells were cultured in RPMI supplemented with 50 U/mL IL2 for 7 days. […]

NFATc2 = experiment: NFAT pathway activation in stimulated T cells (western blot of NFATc2); type: cell-based, human; conditions: 4 h
Procedure: FIG. 22A and FIG. 22B show the effects of active compounds on NFAT pathway activation. […] FIG. 22C and FIG. 22D show the effects of active compounds on MAPK pathway. […] All treatments were done for 24 h.

BIRC2 and BIRC3 mRNA = experiment: mRNA content for BIRC2 and BIRC3 in T cells (qPCR); type: cell-based, human; conditions: EV-3 10 μM, 24 h
Procedure: All treatments were done with T cells for 24 hours.
Total RNA from compound or DMSO treated T cells (1.5×10^7 cells/group) was isolated using RNeasy Mini Kit (Qiagen) according to manufacturer's protocol. RNA concentration was determined using NanoDrop and adjusted to 1 μg RNA in 15 μL RNAse free water for the reverse transcription reaction. cDNA amplification was done using iScript Reverse Transcription Supermix kit (BioRad) according to manufacturer's instructions. The following PCR settings were used for the reverse transcription reaction: 5 min at 25° C. (priming), 20 min at 46° C. (Reverse transcription), 1 min at 95° C. (RT inactivation), hold at 4° C. qPCR analysis was performed on ABI Real Time PCR System (Applied Biosystems) with the SYBR green Mastermix (Applied Biosystems). Relative gene expression was normalized to actin.

`C=CC(=O)N(Cc1cccc(Cl)c1Cl)c1ccc(Oc2ccccc2)c(C(F)(F)F)c1` [BPK-21] was tested, and the “T cell activation in sgERCC3 cells” value ([1]; CRISPR/Cas9 disruption of ERCC3) was “only a modest further reduction in activation” and the “reductions in NFATc2 dephosphorylation (NFAT activation)” value (NFATc2) was “did not appear to impact”.
In the case of `C=CC(=O)N(Cc1cccc(Cl)n1)c1ccc(C(=O)Nc2ccccc2)nc1` [BPK-25], the NFATc2 expression (NFATc2) is reported as “reduced NFATc2 expression”.
For `O=C(CCl)N1CCN(S(=O)(=O)c2ccc(-c3ccncc3)cc2)CC1` [EV-3], the “T cell activation in BIRC2/BIRC3-null cells” value ([1]; CRISPR/Cas-9 disruption of BIRC2 and BIRC3) was “further decreased T cell activation” and the “mRNA content for BIRC2 or BIRC3” value (BIRC2 and BIRC3 mRNA) was “minimal changes”.
